From patent publication US6949571B2, “1,2-dihydropyridine compounds, process for preparation of the same and use thereof” (Eisai Co., Ltd., priority 2000, dated 2005) come the findings set out here.

A word on the IC50: it is the concentration needed to halve the response being measured.

Assay [1] relates to AMPA receptor.
The subject of assay [2] is convulsions induced by AMPA. Put plainly: Anticonvulsant action induced by AMPA. Conditions: 25 mg/kg orally, male ddy mice; AMPA continuously injected into lateral ventricle 30 minutes or 1 hour after. Type of assay: in vivo, mice of ddy strain. How it is done: A test compound was suspended in a 0.5% methyl cellulose solution or in sesame oil and was orally administered (25 mg/kg) to male mice of ddy strain. After 30 minutes or 1 hour from the oral administration, AMPA was continuously injected ([…]/5 μl/minute/mouse) into lateral ventricle to induce the convulsions. The effect was judged by a time-extending action until the convulsion takes place by a continuous injection of AMPA.

[3] abbreviates: Table 1, primary culture of rat embryo cerebral cortex nerve cells, 2 μM AMPA, 1 μM MK-801.
[4] abbreviates: Table 2, suppression of AMPA-induced calcium influx into nerve cells.
The mark [5] stands for this setting: Table 3, primary culture of rat embryo cerebral cortex nerve cells, 2 μM AMPA, 1 μM MK-801.

Structures are written as SMILES. Read-outs that look alike come from different tables or passages of the source.
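For IC50 in this document: primary rat embryonic cortical neurons grown on an astrocyte layer in 96-well plates, used after at least 8 to 10 days in culture, Fura2-AM fluorescence ratio at 340/380 nm excitation.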

In assay [1] (setting [3]), `CN(C)c1cccc(-n2cc(-c3ccccn3)cc(-c3ccccc3C#N)c2=O)c1` [Example 12, 3-(2-Cyanophenyl)-5-(2-pyridyl)-1-(3-dimethylaminophenyl)-1,2-dihydropyridin-2-one] had an IC50 of 100 nM. In addition, in assay [2], the “anticonvulsant action (time-extending action until the convulsion takes place)” value (“anticonvulsant action” for short) is on record as “significant anticonvulsant action”.
For `N#Cc1cccc(-c2cc(-c3ccccn3)cn(-c3ccccc3)c2=O)n1` [Example 78, 3-(6-Cyano-2-pyridyl)-5-(2-pyridyl)-1-phenyl-1,2-dihydropyridin-2-one] the same measures were 1400 nM and “significant anticonvulsant action”.
For `O=c1c(-c2ccccc2Cl)cc(-c2ccccn2)cn1-c1ccccc1` [Example 57, 3-(2-Chlorophenyl)-5-(2-pyridyl)-1-phenyl-1,2-dihydropyridin-2-one], in that order: 200 nM and “significant anticonvulsant action”.
Consider `N#Cc1sccc1-c1cc(-c2ccccn2)cn(-c2cccnc2)c1=O` [Example 137, 3-(2-Cyanothiophen-3-yl)-5-(2-pyridyl)-1-(3-pyridyl)-1,2-dihydropyridin-2-one], for which the IC50 in assay [1] (setting [4]) was 50 nM. For the same compound, in assay [2], the “anticonvulsant action” value is “significant anticonvulsant action”.
For `O=c1c(-c2ccccc2[N+](=O)[O-])cc(-c2ccccn2)cn1-c1ccccc1` [Example 270, 3-(2-Nitrophenyl)-1-phenyl-5-(2-pyridyl)-1,2-dihydropyridin-2-one], in that order: 140 nM and “significant anticonvulsant action”.
`O=c1c(-c2ccccc2Cl)cc(-c2ccccn2)cn1-c1cccnc1` [Example 128, 3-(2-Chlorophenyl)-5-(2-pyridyl)-1-(3-pyridyl)-1,2-dihydropyridin-2-one] displayed an IC50 in assay [1] (setting [3]) of 70 nM. Besides, in assay [2], the “anticonvulsant action” value was “significant anticonvulsant action”.
In assay [1] (setting [3]), `COc1ccccc1-n1cc(-c2ccccn2)cc(-c2ccccc2C#N)c1=O` [Example 126, 3-(2-Cyanophenyl)-5-(2-pyridyl)-1-(2-methoxyphenyl)-1,2-dihydropyridin-2-one] showed an IC50 of 300 nM. In assay [2], the “anticonvulsant action” value was “significant anticonvulsant action”.
Consider `N#Cc1ncccc1-c1cc(-c2ccccn2)cn(-c2ccccc2)c1=O` [Example 16, 3-(2-Cyano-3-pyridyl)-5-(2-pyridyl)-1-phenyl-1,2-dihydropyridin-2-one], for which, in assay [1] (setting [3]), the IC50 was found to be 100 nM. In addition, in assay [2], the “anticonvulsant action” value was “significant anticonvulsant action”.
For `N#Cc1ccccc1-c1cc(-c2ccccn2)cn(-c2ccc(F)cc2)c1=O` [Example 91, 3-(2-Cyanophenyl)-5-(2-pyridyl)-1-(4-fluorophenyl)-1,2-dihydropyridin-2-one] the same measures were 50 nM and “significant anticonvulsant action”.
Turning to `N#Cc1ccccc1-c1cc(-c2cccc(N)n2)cn(-c2ccccc2)c1=O` [Example 298, 5-(2-Aminopyridin-6-yl)-3-(2-cyanophenyl)-1-phenyl-1,2-dihydropyridin-2-one], the IC50 in assay [1] (setting [4]) came to 300 nM. For the same compound, the “anticonvulsant action” value in assay [2] is “significant anticonvulsant action”.
In assay [1] (setting [3]), `N#Cc1ccccc1-c1cc(-c2cccnc2)cn(-c2ccccc2)c1=O` [Example 34, 3-(2-Cyanophenyl)-5-(3-pyridyl)-1-phenyl-1,2-dihydropyridin-2-one] showed an IC50 of 3700 nM.
`N#Cc1ccccc1-c1cc(-c2ccccn2)cn(-c2ccc(Cl)nc2)c1=O` [Example 120, 3-(2-Cyanophenyl)-5-(2-pyridyl)-1-(2-chloropyridin-5-yl)-1,2-dihydropyridin-2-one]: the IC50 in assay [1] (setting [3]) came to 200 nM.
Turning to `O=c1c(-c2ccccc2Cl)cc(-c2ccccn2)cn1-c1cccc(O)c1` [Example 143, 3-(2-Chlorophenyl)-5-(2-pyridyl)-1-(3-hydroxyphenyl)-1,2-dihydropyridin-2-one], the IC50 in assay [1] (setting [4]) is 100 nM.
For the compound `COc1ccccc1-c1cc(-c2ccccc2C#N)c(=O)n(-c2ccccc2)c1` [Example 42, 3-(2-Cyanophenyl)-5-(2-methoxyphenyl)-1-phenyl-1,2-dihydropyridin-2-one], the IC50 in assay [1] (setting [3]) came out at 200 nM.
With `CC(=O)N1CCN(Cc2cccc(-n3cc(-c4ccccn4)cc(-c4ccccc4C#N)c3=O)c2)CC1` [Example 251, 1-[3-[(4-Acetylpiperazino)methyl]phenyl]-3-(2-cyanophenyl)-5-(2-pyridyl)-1,2-dihydropyridin-2-one], in assay [1] (setting [4]), the IC50 turned out to be 900 nM.
On to `N#Cc1ncccc1-c1cc(-c2ncccn2)cn(-c2cccnc2)c1=O` [Example 265, 3-(2-Cyanopyridin-3-yl)-1-(3-pyridyl)-5-(2-pyrimidinyl)-1,2-dihydropyridin-2-one], for which the IC50 in assay [1] (setting [4]) was 700 nM.
`O=c1c(N(Cc2ccccc2)Cc2ccccc2)cc(-c2ccccn2)cn1-c1ccccc1` [Example 314, 3-Dibenzylamino-1-phenyl-5-(2-pyridyl)-1,2-dihydropyridin-2-one] registered an IC50 in assay [1] (setting [5]) of 4600 nM.
`N#Cc1ccccc1-c1cc(-c2ccccn2)cn(-c2cccc(OC3CCN(C(=O)c4ccccc4)CC3)c2)c1=O` [Example 334, 1-[3-(N-benzoylpiperidin-4-yl-oxy)phenyl]-3-(2-cyanophenyl)-5-(2-pyridyl)-1,2-dihydropyridin-2-one]: in assay [1] (setting [5]), the half-maximal inhibitory concentration (IC50) is 600 nM.
Consider `COc1cccc(-c2cc(-c3ccccn3)cn(-c3ccccc3)c2=O)n1` [Example 260, 3-(2-Methoxypyridin-6-yl)-1-phenyl-5-(2-pyridyl)-1,2-dihydropyridin-2-one], for which the IC50 in assay [1] (setting [4]) was 2700 nM.
For the compound `O=c1c(-c2ccc3ccccc3c2)cc(-c2ccccn2)cn1-c1ccccc1` [Example 284, 3-(2-Naphthyl)-5-(2-pyridyl)-1-phenyl-1,2-dihydropyridin-2-one], the IC50 in assay [1] (setting [4]) came out at 2800 nM.
The same measure, in the same setting: for `Cc1ccc(C)n1-c1cccc(-c2cc(-c3ccccc3C#N)c(=O)n(-c3ccccc3)c2)n1` [Example 297, 3-(2-Cyanophenyl)-5-[2-(2,6-dimethylpvrrol-1-yl)pyridin-6-yl]-1-phenyl-1,2-dihydropyridin-2-one] the value was 4200 nM.
In assay [1] (setting [3]), `N#Cc1ccccc1-c1cc(-c2ccccn2)cn(-c2ccncc2)c1=O` [Example 117, 3-(2-Cyanophenyl)-5-(2-pyridyl)-1-(4-pyridyl)-1,2-dihydropyridin-2-one] displayed an IC50 of 400 nM.
The compound `N#Cc1ccccc1-c1cc(-c2ccco2)cn(-c2ccccc2)c1=O` [Example 49] returned an IC50 in assay [1] (setting [3]) of 200 nM.
As for `CN(C)CCOc1ccc(-c2cc(-c3ccccn3)cn(-c3ccccc3)c2=O)cc1` [Example 248, 3-[4-(Dimethylaminoethoxy)phenyl]-1-phenyl-5-(2-pyridyl)-1,2-dihydropyridin-2-one], in assay [1] (setting [4]), the IC50 turned out to be 3400 nM.
The compound `N#Cc1ccccc1-c1cc(-c2ccccc2)c(=O)n(-c2ccccn2)c1` [Example 38, 3-Phenyl-5-(2-cyanophenyl)-1-(2-pyridyl)-1,2-dihydropyridin-2-one] showed an IC50 in assay [1] (setting [3]) of 6300 nM.
Consider `CN(C)CCOc1cccc(-n2cc(-c3ccccn3)cc(-c3ccccc3Cl)c2=O)c1` [Example 144, 3-(2-Chlorophenyl)-5-(2-pyridyl)-1-(3-dimethylaminoethoxyphenyl)-1,2-dihydropyridin-2-one], for which the IC50 in assay [1] (setting [4]) was 10 nM.
For the compound `N#Cc1ccccc1-c1cc(-c2ccccn2)cn(-c2ccc(N3CCN(Cc4ccccc4)CC3)nc2)c1=O` [Example 113, 3-(2-Cyanophenyl)-5-(2-pyridyl)-1-[2-(4-benzylpiperazin-1-yl)-pyridin-5-yl]-1,2-dihydropyridin-2-one], the IC50 in assay [1] (setting [3]) is 1200 nM.
As for `CS(=O)(=O)NCc1cccc(-n2cc(-c3ccccn3)cc(-c3ccccc3C#N)c2=O)c1` [Example 24, 3-(2-Cyanophenyl)-5-(2-pyridyl)-1-(3-methylsulfonylaminomethylphenyl)-1,2-dihydropyridin-2-one], the midpoint of inhibition in assay [1] (setting [3]), the IC50, lay at 200 nM.
In turn, `N#Cc1ccccc1-c1cc(-c2ccsc2CO)cn(-c2ccccc2)c1=O` [Example 30, 3-(2-Cyanophenyl)-5-(2-hydroxymethylthiophen-3-yl)-1-phenyl-1,2-dihydropyridin-2-one] registered an IC50 in assay [1] (setting [3]) of 40 nM.
As for `O=c1c(-c2ccc([N+](=O)[O-])cc2)cc(-c2ccccn2)cn1-c1ccccc1` [Example 275, 3-(4-Nitrophenyl)-1-phenyl-5-(2-pyridyl)-1,2-dihydropyridin-2-one], in assay [1] (setting [4]), the IC50 is 6100 nM.
The same measure, in the same setting: with `N#Cc1ccccc1-c1cc(-c2cccnn2)cn(-c2ccccc2)c1=O` [Example 204, 3-(2-Cyanophenyl)-1-phenyl-5-(3-pyridazyl)-1,2-dihydropyridin-2-one] the figure was 1600 nM.
`N#Cc1ccccc1-c1cc(-c2ccccn2)cn(-c2ccc(F)nc2)c1=O` [Example 123, 3-(2-Cyanophenyl)-5-(2-pyridyl)-1-(2-fluoropyridin-5-yl)-1,2-dihydropyridin-2-one]: in assay [1] (setting [3]), the IC50 stood at 200 nM.
Same read-out and setting: with `N#Cc1ccccc1-c1cc(-c2ccccn2)cn(-c2cccc(Cl)c2)c1=O` [Example 102, 3-(2-Cyanophenyl)-5-(2-pyridyl)-1-(3-chlorophenyl)-1,2-dihydropyridin-2-one] the figure was 20 nM; with `CC(=O)NCc1cccc(-n2cc(-c3ccccn3)cc(-c3ccccc3C#N)c2=O)c1` [Example 23, 3-(2-Cyanophenyl)-5-(2-pyridyl)-1-(3-acetylaminomethylphenyl)-1,2-dihydropyridin-2-one], 200 nM.
